Results taken from ChEMBL document CHEMBL1149799, “Bioactive peroxides as potential therapeutic agents” (Eur J Med Chem, 2008).
≈ marks a conversion by molar mass, not a printed value. Calls of active or inactive are those of the source. The calls are words filed in the database; no cut-off is given here.

Experiments:
[1] = Inhibition of human SKW3 cells adhesion to soluble ICAM1; assay type: functional, cell-based
P388 [2] = experiment: Cytotoxicity against mouse P388 cells at 0.5 ug/mL; assay type: functional
HCT-8 = experiment: Cytotoxicity against human HCT8 cells at 10 ug/mL; assay type: functional
[3] = Cytotoxicity against human Hepa59T/VGH cells; assay type: functional; settings: HEPA 59T/VGH, read-out: ED50 (the source's name)
[4] = target: Protein kinase C beta type (Homo sapiens) (UniProt P05771); experiment: Agonist activity at protein kinase C beta2 at 50 pg/mL; assay type: functional
[5] = target: T1, Protein kinase C gamma type (Homo sapiens, UniProt P05129); experiment: Agonist activity at protein kinase C gamma at 50 pg/mL; assay type: functional
[6] = target: Protein kinase C delta type (Homo sapiens) (UniProt Q05655); experiment: Agonist activity at protein kinase C delta at 50 pg/mL; assay type: functional
[7] = target: Protein kinase C alpha type (Homo sapiens) (UniProt P17252); experiment: Agonist activity at protein kinase C alpha at 50 pg/mL; assay type: functional
[8] = target: Protein kinase C epsilon type (Homo sapiens) (UniProt Q02156); experiment: Agonist activity at protein kinase C epsilon at 50 pg/mL; assay type: functional
[9] = target: Protein kinase C beta type (Homo sapiens) (UniProt P05771); experiment: Agonist activity at protein kinase C beta-1 at 50 pg/mL; assay type: functional
HeLa = experiment: Cytotoxicity against human HeLa cells; assay type: functional, cell-based
SF-268 [10] = experiment: Cytotoxicity against human SF268 cells at 30 uM; assay type: functional, cell-based
MCF7 = experiment: Cytotoxicity against human MCF7 cells; assay type: functional, cell-based; settings: Homo sapiens, MCF7
MIA PaCa-2 = experiment: Cytotoxicity against human MIA-PaCa2 cells
SF-268 [11] = experiment: Cytotoxicity against human SF268 cells; assay type: functional, cell-based
NCI-H460 = experiment: Cytotoxicity against human NCI-H460 cells; assay type: functional, cell-based; settings: Homo sapiens, NCI-H460
[12] = Cytotoxicity against human KB16 cells; assay type: functional, cell-based
[13] = target: Protein kinase C epsilon type (Homo sapiens, UniProt Q02156); experiment: Antagonist activity at protein kinase C epsilon; assay type: functional
[14] = target: T1, Protein kinase C gamma type; experiment: Antagonist activity at protein kinase C gamma; assay type: functional
EL4 = experiment: Cytotoxicity against […] cells; assay type: functional, cell-based; settings: Mus musculus
P388 [15] = experiment: Cytotoxicity against mouse P388 cells; assay type: functional, cell-based; settings: Mus musculus, P388; read-out: ED50 (the source's name)
P388 [16] = experiment: Cytotoxicity against mouse P388 cells at 0.05 ug/ml; assay type: functional
[17] = target: Protein kinase C zeta type (Homo sapiens, UniProt Q05513); experiment: Antagonist activity at protein kinase C zeta; assay type: functional
Chain of Protein kinase C zeta type (Q05513 whole entry): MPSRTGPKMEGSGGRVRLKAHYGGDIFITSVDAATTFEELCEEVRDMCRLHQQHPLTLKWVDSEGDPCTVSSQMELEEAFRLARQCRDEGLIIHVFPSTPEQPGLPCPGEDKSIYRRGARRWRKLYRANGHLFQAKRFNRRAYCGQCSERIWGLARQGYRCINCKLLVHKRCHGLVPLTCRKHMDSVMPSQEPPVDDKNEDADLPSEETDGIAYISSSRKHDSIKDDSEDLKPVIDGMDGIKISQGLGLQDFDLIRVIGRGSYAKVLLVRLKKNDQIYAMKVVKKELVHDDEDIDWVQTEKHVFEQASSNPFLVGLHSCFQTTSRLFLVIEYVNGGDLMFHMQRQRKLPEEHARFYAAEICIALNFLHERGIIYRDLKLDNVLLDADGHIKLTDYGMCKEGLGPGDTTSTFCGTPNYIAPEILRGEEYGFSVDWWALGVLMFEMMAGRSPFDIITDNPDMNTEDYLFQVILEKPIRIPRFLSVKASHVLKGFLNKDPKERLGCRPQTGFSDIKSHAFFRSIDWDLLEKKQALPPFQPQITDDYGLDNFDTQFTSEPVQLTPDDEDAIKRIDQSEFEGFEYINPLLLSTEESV

Chain of Protein kinase C beta type (Homo sapiens) (P05771 2-671 limits assumed): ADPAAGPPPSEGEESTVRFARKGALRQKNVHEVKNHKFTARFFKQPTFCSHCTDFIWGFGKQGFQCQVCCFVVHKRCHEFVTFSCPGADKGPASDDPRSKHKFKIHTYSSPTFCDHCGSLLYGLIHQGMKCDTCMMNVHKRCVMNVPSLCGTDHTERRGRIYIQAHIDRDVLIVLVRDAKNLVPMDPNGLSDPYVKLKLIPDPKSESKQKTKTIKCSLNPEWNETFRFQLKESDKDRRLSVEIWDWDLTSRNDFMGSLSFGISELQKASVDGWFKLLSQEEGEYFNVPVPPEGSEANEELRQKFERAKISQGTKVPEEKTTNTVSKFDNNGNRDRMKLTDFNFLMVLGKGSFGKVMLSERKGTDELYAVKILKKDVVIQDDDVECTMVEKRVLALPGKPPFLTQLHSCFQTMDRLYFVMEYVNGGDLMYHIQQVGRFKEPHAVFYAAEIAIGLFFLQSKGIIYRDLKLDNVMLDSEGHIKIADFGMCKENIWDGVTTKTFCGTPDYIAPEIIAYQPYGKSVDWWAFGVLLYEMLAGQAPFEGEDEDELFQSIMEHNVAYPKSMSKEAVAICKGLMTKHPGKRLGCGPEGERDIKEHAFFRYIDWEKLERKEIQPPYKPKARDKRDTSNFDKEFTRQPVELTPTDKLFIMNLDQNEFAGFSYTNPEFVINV
Chain of Protein kinase C epsilon type (Q02156 whole entry): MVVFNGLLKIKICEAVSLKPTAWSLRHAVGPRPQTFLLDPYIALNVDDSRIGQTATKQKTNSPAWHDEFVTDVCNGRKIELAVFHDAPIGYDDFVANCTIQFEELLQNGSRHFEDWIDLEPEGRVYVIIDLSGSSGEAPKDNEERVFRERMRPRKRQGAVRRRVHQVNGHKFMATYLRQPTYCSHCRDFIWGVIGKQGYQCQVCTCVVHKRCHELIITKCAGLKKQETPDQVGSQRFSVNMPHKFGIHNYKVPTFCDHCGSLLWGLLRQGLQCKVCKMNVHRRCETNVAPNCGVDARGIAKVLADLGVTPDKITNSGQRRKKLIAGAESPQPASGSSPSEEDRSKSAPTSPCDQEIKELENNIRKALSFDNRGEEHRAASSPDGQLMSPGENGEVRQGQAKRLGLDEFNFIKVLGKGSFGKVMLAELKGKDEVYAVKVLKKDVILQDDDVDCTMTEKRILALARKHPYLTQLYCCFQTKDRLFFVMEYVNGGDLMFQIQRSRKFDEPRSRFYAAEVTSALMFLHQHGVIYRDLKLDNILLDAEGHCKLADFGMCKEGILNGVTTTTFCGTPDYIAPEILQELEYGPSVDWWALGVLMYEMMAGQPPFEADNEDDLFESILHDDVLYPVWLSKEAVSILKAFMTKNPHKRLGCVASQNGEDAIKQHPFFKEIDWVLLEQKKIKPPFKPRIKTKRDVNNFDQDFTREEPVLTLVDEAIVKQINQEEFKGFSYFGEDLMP
Chain of Protein kinase C epsilon type (Homo sapiens) (Q02156 whole entry): as above
Chain of Protein kinase C delta type (Homo sapiens) (Q05655 whole entry, looked up): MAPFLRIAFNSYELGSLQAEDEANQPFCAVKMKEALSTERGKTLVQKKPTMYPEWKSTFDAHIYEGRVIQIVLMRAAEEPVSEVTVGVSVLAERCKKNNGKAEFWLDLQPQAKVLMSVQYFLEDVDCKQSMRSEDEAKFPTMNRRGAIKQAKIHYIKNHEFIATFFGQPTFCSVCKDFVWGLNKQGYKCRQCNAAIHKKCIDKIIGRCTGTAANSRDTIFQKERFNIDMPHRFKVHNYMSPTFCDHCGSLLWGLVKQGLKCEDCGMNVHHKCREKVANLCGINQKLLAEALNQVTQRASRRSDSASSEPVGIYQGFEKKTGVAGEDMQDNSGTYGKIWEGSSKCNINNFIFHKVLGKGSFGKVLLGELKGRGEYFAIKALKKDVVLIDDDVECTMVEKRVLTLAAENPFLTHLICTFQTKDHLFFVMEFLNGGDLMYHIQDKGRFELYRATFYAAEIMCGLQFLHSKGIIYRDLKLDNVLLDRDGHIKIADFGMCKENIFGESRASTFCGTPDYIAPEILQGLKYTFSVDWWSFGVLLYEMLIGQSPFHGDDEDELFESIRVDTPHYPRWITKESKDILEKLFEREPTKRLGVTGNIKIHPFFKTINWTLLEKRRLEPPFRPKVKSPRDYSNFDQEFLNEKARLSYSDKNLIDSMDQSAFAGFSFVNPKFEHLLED

## Cc1ccc2c(c1O)C(=O)c1c(cc(O)c(C(=O)O)c1C)[C@]2(C)OO[C@@]1(C)c2cc(O[C@H]3O[C@@H](CO)[C@@H](O)[C@@H](O[C@@H]4O[C@H](CO)[C@H](O)[C@H](O)[C@H]4O)[C@@H]3O)c(C(=O)O)c(C)c2C(=O)c2c1ccc(C)c2O [ADXANTHROMYCIN B]
[1]
  IC50: 25 µg/mL (≈ 25.5 µM)

## Cc1ccc2c(c1O)C(=O)c1c(cc(O)c(C(=O)O)c1C)[C@]2(C)OO[C@@]1(C)c2cc(O[C@H]3O[C@@H](CO)[C@@H](O)[C@@H](O)[C@@H]3O)c(C(=O)O)c(C)c2C(=O)c2c1ccc(C)c2O [ADXANTHROMYCIN A]
[1]
  IC50: 18.8 µg/mL (≈ 23 µM)

## CCCCCCCCCCCCCCCC[C@]1(C)C[C@](C)(CC(=O)O)OO1
P388 [2]
  inhibition at 0.5 µg/mL: 90%
HCT-8
  inhibition at 10 µg/mL: 90%

## CC(C)[C@]12C=C3[C@](C)(O)CC[C@]3(OO1)[C@@H](C)CC2 [PEROXYGIBBEROL]
[3]
  EC50: 8.2 µg/mL (≈ 32.5 µM)

## CC(CCCCCCCCc1ccccc1)C[C@]1(C)C[C@]2(C)OC(=O)C[C@@H]2OO1 (some centres undefined)
[4]
  Activity: 27%
[5]
  Activity: 9%
[6]
  Activity: 9%
[7]
  Activity: 19%
[8]
  Activity: 38%
[9]
  Activity: 13%

## CC(=C/C(=O)O)/C=C/C=C(C)/C=C/[C@@H]1C=C2C(C)(C)CCC[C@]2(C)OO1
HeLa
  IC50: 19.8 µg/mL (≈ 55.2 µM)
SF-268 [10]
  Activity: inactive
MCF7
  IC50: 21.9 µg/mL (≈ 61.1 µM)
MIA PaCa-2
  IC50: 13.9 µg/mL (≈ 38.8 µM)
SF-268 [11]; sf-268
  IC50: Not Active
NCI-H460
  IC50: 21 µg/mL (≈ 58.6 µM)

## CC(=C/C(=O)O)/C=C/C=C(\C)[C@@H]1C=C2C(C)(C)CCC[C@]2(C)OO1
HeLa
  IC50: 2 µg/mL (≈ 6.02 µM)
MCF7
  IC50: 2.7 µg/mL (≈ 8.12 µM)
MIA PaCa-2
  IC50: 1.7 µg/mL (≈ 5.11 µM)
SF-268 [11]; Homo sapiens, SF-268, read-out: IC50
  IC50: 3.5 µg/mL (≈ 10.5 µM)
NCI-H460
  IC50: 2.1 µg/mL (≈ 6.32 µM)

## CCCCCCCCCCCCCCCC[C@@]1(OC)C=C[C@@H](CC(=O)OC)OO1 [CHONDRILLIN]
[12]
  IC50: 0.74 µg/mL (≈ 1.79 µM)
[13]
  IC50: 72.7 µM
[14]
  IC50: > 364 µM
EL4
  IC50: 0.4 µg/mL (≈ 0.969 µM)
P388 [15]
  EC50: > 10 µg/mL
P388 [16]
  inhibition at 0.05 µg/mL: 50%
[17]
  IC50: 104 µM
